Series [1] deals with senescent HSCs induced by TBI.
Protocol: The femora and tibiae were harvested from mice immediately after they were euthanized. BM cells were flushed from the bones into HBSS containing 2% FCS using a 21-gauge needle and syringe. […] The labeled mature lymphoid and myeloid cells were depleted twice by incubation with goat anti-rat IgG paramagnetic beads (Dynal Inc, Lake Success, N.Y., USA) at a bead:cell ratio of approximately 4:1. Cells binding the paramagnetic beads were removed with a magnetic field. The negatively isolated Lin^− cells were washed twice with 2% FCS/HBSS and resuspended in complete medium (RPMI1640 medium supplemented with 10% FCS, 2 mM L-glutamine, 10 μM HEPES buffer, and 100 U/ml penicillin and streptomycin) at 1×10^6/ml. HSCs (CD150^+CD48^− LSK^+ cells) were sorted by a BD FACSAria II cell sorter (BD Biosciences, San Jose, Calif.) after Lin^− cells were preincubated with anti-CD16/32 antibody to block the Fcγ receptors and then stained with anti-Sca1-PE, c-Kit-APC-Cy7, CD150-APC and CD48-Pacific blue antibodies. Dead cells were excluded by gating out the cells that stained positive with PI.
Feeder cell stromal layers were prepared by seeding 10^3/well FBMD-1 stromal cells in each well of flat-bottom 96-well plates (Falcon, Lincoln Park, N.J.). One week later, BM-MNCs resuspended in CAFC medium (Iscove's MDM supplemented with 20% horse serum, 10^−5 M hydrocortisone, 10^−5 M 2-mercaptoethanol, 100 U/ml penicillin, and 100 μg/ml streptomycin) after various treatments described above were overlaid on these stromal layers in 6 dilutions at 3-fold intervals. Twenty wells were plated for each dilution to allow limiting dilution analysis of the precursor cells forming hematopoietic cell clones under the stromal layer. Cultures were fed weekly by changing one-half of the media. The frequencies of CAFC were determined on days 14 and 35. Wells were scored positive if at least one phase-dark hematopoietic clone (containing 5 or more cells) was seen. The frequency of CAFC was then calculated by using Poisson statistics as described previously^9, 10. […]
The subject of the next series is IR-induced WI-38 SCs. In words: Apoptosis analysis (Annexin V/PI flow cytometry). The series is classed as cell-based, human. Particulars: 1.25 μM ABT263, 24 h, with or without 20 μM Q-VD-OPh. On the procedure: Cells were seeded into a 6-well plate at 4-6×10^5 cells/well. […] The cells were harvested 24 h after treatment and resuspended in 1× annexin V binding buffer (BD Biosciences) at 1×10^6 cells/ml. An aliquot (100 μl) of the cell suspension was incubated with 5 μl of Annexin V-FITC (BD Biosciences) or PI (1 mg/ml) for 15 min at room temperature in the dark. After addition of 400 μl of 1× binding buffer, 10,000 cells per sample were analyzed by a BD LSR H flow cytometer (BD Biosciences).
In general terms: Flow cytometry measures light scatter and fluorescence of single cells or particles in a stream.

The test system of a further series is caspase 3, caspase 8. In words: Western blot analysis of caspase activation. The series is classed as cell-based, human. The conditions noted are these: IR-SC WI-38; 1.25 μM ABT263, 24 h. How it is done: Cells (1×10^6) were lysed in 100 μl lysis buffer (20 mM Tris-HCl, pH 7.4, 150 mM NaCl, 1 mM EDTA. 1 mM EGTA, 10% glycerol, 1.0% NP-40, 0.1 M NaF, 1 mM DTT, 1 mM PMSF, 1 mM NaVO4, 2 μg/ml leupeptin and aprotinin) for 30 min on ice, and cell extracts were sonicated 3 times (5 secs each time) on ice with a 25-sec interval in between using a Sonic Dismembrator Ultrasonic Convertor (Model F60, from Fisher, Pittsburgh, Pa., USA). The protein concentrations were quantified using the Bio-Rad Dc protein assay kit (Bio-Rad Laboratories, Hercules, Calif., USA). Equal amounts of protein (25-50 μg/lane) from each extract was resolved on 12% SDS-PAGE gels. Proteins were blotted to NOVEX NC membranes (Life Technologies, Carlsbad, Calif., USA). The membranes were blocked with TBS-T (5% nonfat milk in 25 mM Tris-HCl, pH 7.4. 3 mM KCl, 140 mM NaCl, and 0.05% Tween) and subsequently probed with primary antibodies at a predetermined optimal concentration as indicated in Supplementary Table 3 overnight at 4° C. or for 1 h at room temperature. […] After three washes with TBS-T, the blots were detected using the ECL Western Blotting Detection Reagents (Cat #WBKLS0100) (EMD MILLIPORE. Newmarket, Suffolk, UK) and recorded by exposure of the blots to X-ray film (Pierce Biotech, Rockford, Ill., USA).

Series [2] deals with non-senescent WI-38 cells (NC). In words: Cell viability (PI flow cytometry), LD50 in non-senescent WI-38 cells. Particulars: for CC50: WI-38 fibroblasts, non-senescent, LD50 by Probit Analysis, read-out: LD50 (μM) for non-senescent cells (NC). The series is classed as cell-based, human. How it is done: Mouse embryonic fibroblasts (MEF) were isolated from mouse embryos as described^1. All cells were cultured in a complete medium (CM) (Dulbecco's Modified Eagle Medium supplemented with 10% fetal bovine serum [FBS], 100 U/ml penicillin, and 100 μg/ml streptomycin [all from Atlanta Biologicals, Norcross, Ga., and USA]) in a humidified incubator at 37° C. and 5% CO2. Low passages of WI-38 cells (<25), IMR-90 (<25), REC cells (<25) and MEF (<3) were used as non-senescent controls or for induction of senescence to avoid replicative senescence. […] To induce senescence by expression of oncogenic Ras (Ras^V12), WI-38 cells were infected with the retroviruses pBabe-H-Ras or pBabe-puro (control) (Addgene, Cambridge, Mass., UAS)^2, 3. […] Senescent cells were maintained in culture for a few days, changing the culture medium every 3 days until use. For in vitro cell culture experiments, we usually repeated the experiments for at least three times to ensure the reproducibility of the data. In addition, the repeats of the experiments for three times will allow us to obtain 3 independent observations for statistical analysis.
Flow cytometry: Non-senescent and senescent cells were seeded into wells of 24- or 48-well at about 70% of confluence. […] Both quiescent non-senescent cells and permanently growth arrested senescent cells were treated with vehicle (0.1% DMSO or PBS) or increasing concentrations of the compounds listed in Table 1 for various durations. […] After incubated with propidium iodide (PI 100 ng/ml) in PBS at room temperature for 1 min, cells were centrifuged at 1200 rpm for 6 min and then resuspended in PBS with 2% of FBS for analysis by a BD LSR II flow cytometer (BD Biosciences, San Jose, Calif., USA). Viable cells (PI^− cells) were numerated by flow cytometry at a constant flow rate and calculated as a percentage of control cells treated with vehicle using the formula: percentage of control=(Ndrug/NC)×100, where Ndrug and NC represent the absolute number of PI^− viable cells of drug-treated and vehicle-treated cells, respectively.
MTT (3-[4,5-dimethylthiazol-2-yl]-2,5 diphenyl tetrazolium bromide) assay: Cells were harvested, washed and resuspended in CM and added to wells of 24- or 48-well plates as described above. […] After 4 h at 37° C., the formazan was solubilized by lysing the cells with 300 μl of DMSO. Absorbance of formazan was measured at 595 nm using a Microplate Reader (BioTek, Winooski, Vt., USA). Cell viability was calculated in the method as previously described^4.
Trypan blue exclusion assay: Cells were harvested, washed and resuspended in CM and added to wells of a 6-well plate as described above. […] Living cells stained negative for trypan blue and were counted under light microscopy.
Briefly, Probit (set as y) was determined by looking up their correspondence to the % responded in Finney's table. The log of the compound concentrations was used as x. By fitting a line of regression, we produce the formula y=ax+b.

A further series concerns bone marrow HSCs. In words: Single HSC culture clonogenic activity in vitro. The series is classed as cell-based, mouse. Particulars: 1.25 μM ABT263. How it is done: Freshly prepared medium was added every 3 days, Two weeks later, the numbers of cells produced by each HSC were counted.

Each structure is given as a SMILES string. Where two headings read alike, the source gives them in different places.

Regarding `CC1(C)CCC(c2ccc(Cl)cc2)=C(CN2CCN(c3ccc(C(=O)NS(=O)(=O)c4ccc(N[C@H](CCN5CCOCC5)CSc5ccccc5)c(S(=O)(=O)C(F)(F)F)c4)cc3)CC2)C1` [ABT263, navitoclax], the “HSC myeloid skewing, quiescence and persistent DNA damage” value in series [1] (TBI mice, Ki67, γH2AX, BMT) is “attenuated IR-induced HSC myeloid skewing and disruption of HSC quiescence, and reduced HSCs with persistent DNA damage”. Further, the “BM HSC and HPC numbers” value in series [1] (after ABT263 treatment of CTL or TBI mice) is “did not quantitatively reduce BM HSCs or hematopoietic progenitor cells (HPCs)”. In series [1] (day-35 CAFC, competitive and serial BMT), the “clonogenicity (CAFC) and long-term engraftment ability of HSCs” value is “significantly improved the clonogenicity and long-term engraftment ability of HSCs”. In the series with IR-induced WI-38 SCs, the apoptosis induction entry is reported as “selectively killed SCs by inducing apoptosis, which was abrogated by QVD”. Also, the caspase activation entry in the series with caspase 3, caspase 8 was “SCs activated caspase 3, but not caspase 8”. Moreover, the CC50 in series [2] (Homo sapiens) is 12.6 µM; in series [2], 12.60 µM. The “LD50” value in series [2] (Table 2, NC WI38 cells) stood at 12.60 µM. Moreover, in series [2] (non-senescent WI-38, increasing concentrations, 72 h), the “viable cells by MTT assay and trypan blue exclusion test” value is given as “is not cytotoxic to non-senescent WI-38 cells”. Moreover, the entries for the “clonogenicity of BM HSCs in vitro” value with bone marrow HSCs (HSCs from control unirradiated mice) and in the series with bone marrow HSCs (HSCs from irradiated mice) were “had little effect on the clonogenicity of BM HSCs from control unirradiated mice” and “markedly reduced the clonogenicity of BM HSCs from irradiated mice”, respectively.

Values taken from patent US11331328B2, “Compositions and methods for inhibiting antiapoptotic Bcl-2 proteins as anti-aging agents” (priority 2014, dated 2022).
